The text below walks through data of ChEMBL document CHEMBL1201862, “PubChem BioAssay data set” (2004).

As a reminder, the CC50 is the concentration giving 50% cytotoxicity. For orientation: IC50 means the concentration needed to halve the response being measured. As usually defined, the EC50 is the concentration needed to bring the measured effect to its halfway point. For orientation: AC50 means the midpoint of the concentration-response curve, whichever way the signal moves.

The source made the active and inactive calls.

One assay relates to Vero. The experiment in a line: cells. In kind it is functional. To be noted: Chlorocebus sabaeus.
Assay [1] in a line: Fluorescence-based cell-based high throughput dose response assay for inhibitors of the interaction of nucleotide-binding oligomerization domain containing 2 (NOD2) and the receptor-interacting serine-threonine kinase 2 (RIPK2). In kind it is functional. The settings on record: Homo sapiens.
Assay [2] concerns the target Beta-lactamase (Pseudomonas aeruginosa, UniProt Q79MP6).
Assay [3] deals with Beta-lactamase (Salmonella choleraesuis (strain SC-B67), UniProt Q5J463).
Sequence of Beta-lactamase (Salmonella choleraesuis (strain SC-B67), UniProt Q5J463) (Q5J463 whole entry): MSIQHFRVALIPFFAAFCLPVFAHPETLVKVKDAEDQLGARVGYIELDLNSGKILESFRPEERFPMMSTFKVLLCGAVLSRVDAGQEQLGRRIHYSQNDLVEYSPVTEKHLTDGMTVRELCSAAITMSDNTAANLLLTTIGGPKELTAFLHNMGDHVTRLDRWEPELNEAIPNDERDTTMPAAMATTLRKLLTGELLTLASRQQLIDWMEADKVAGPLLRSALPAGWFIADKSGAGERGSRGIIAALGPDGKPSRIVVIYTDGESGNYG
Assay [4] has as its target T1, Insulin-degrading enzyme (Homo sapiens, UniProt P14735).
T1 sequence (P14735 whole entry): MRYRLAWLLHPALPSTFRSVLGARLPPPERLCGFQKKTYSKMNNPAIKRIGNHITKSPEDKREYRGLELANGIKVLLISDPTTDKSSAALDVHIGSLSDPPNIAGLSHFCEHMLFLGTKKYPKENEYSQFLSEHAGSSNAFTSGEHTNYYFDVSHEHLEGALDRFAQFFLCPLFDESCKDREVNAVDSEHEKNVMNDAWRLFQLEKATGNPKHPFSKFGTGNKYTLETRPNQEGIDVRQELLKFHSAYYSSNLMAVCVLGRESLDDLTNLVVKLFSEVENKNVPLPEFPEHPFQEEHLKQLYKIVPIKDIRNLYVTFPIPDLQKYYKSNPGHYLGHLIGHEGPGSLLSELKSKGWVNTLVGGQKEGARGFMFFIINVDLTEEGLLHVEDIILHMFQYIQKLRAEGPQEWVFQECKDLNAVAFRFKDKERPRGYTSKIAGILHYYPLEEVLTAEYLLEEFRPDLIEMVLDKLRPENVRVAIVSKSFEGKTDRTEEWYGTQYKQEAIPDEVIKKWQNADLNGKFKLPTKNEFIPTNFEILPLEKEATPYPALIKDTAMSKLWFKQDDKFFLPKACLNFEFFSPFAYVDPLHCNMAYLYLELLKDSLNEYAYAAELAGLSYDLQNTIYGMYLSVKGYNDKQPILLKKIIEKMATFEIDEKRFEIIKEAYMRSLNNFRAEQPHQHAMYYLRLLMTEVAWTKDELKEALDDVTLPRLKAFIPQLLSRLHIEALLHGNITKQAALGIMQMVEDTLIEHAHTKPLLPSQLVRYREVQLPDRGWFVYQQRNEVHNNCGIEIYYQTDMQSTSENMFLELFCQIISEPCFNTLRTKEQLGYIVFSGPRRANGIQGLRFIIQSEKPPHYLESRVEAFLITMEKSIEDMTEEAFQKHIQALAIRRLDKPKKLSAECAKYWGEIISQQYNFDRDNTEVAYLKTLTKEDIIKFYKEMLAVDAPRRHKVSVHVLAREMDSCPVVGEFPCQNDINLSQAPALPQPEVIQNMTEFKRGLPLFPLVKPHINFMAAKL
Nature of the assay: activators of recombinant IDE enzyme, dose response, counter-screen for IDE activator project, biochemical, fluorescence polarization (AID 588681). In general terms: Counterscreens check selectivity or assay interference.

Assay [5] concerns the target T1, Insulin-degrading enzyme. The experiment in a line: activators of endogenous IDE in HEK cells, dose response, cell-based, fluorescence polarization (AID 588439). In kind it is functional. In general terms: Polarisation of emitted light reports the rotation of a fluorescent probe.
For assay [6], the system named is HEK293. Nature of the assay: HEK cell cytotoxicity by LDH release, dose response, cytotoxicity control for IDE activator project, fluorescence, HEK cells (AID 588440).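 Also: cytotoxicity by LDH release measuring loss of membrane integrity.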 In kind it is functional, cell-based. To be noted: Homo sapiens.
Assay [7] relates to HEK293. The experiment in a line: optical interference in Abeta FP readout, dose response, artefact control for IDE activator project, biochemical, fluorescence polarization (AID 588442). The class given is functional, cell-based. The settings on record: Homo sapiens.
In assay [8] the target is Broad substrate specificity ATP-binding cassette transporter ABCG2 (Homo sapiens, UniProt Q9UNQ0). Nature of the assay: ABCG2 efflux pump inhibitors, dose response, Ig-MXP3 cells, flow cytometry (AID 1690). In kind it is functional. (A flow cytometer gives signals particle by particle.)
Sequence of Broad substrate specificity ATP-binding cassette transporter ABCG2 (Q9UNQ0 whole entry): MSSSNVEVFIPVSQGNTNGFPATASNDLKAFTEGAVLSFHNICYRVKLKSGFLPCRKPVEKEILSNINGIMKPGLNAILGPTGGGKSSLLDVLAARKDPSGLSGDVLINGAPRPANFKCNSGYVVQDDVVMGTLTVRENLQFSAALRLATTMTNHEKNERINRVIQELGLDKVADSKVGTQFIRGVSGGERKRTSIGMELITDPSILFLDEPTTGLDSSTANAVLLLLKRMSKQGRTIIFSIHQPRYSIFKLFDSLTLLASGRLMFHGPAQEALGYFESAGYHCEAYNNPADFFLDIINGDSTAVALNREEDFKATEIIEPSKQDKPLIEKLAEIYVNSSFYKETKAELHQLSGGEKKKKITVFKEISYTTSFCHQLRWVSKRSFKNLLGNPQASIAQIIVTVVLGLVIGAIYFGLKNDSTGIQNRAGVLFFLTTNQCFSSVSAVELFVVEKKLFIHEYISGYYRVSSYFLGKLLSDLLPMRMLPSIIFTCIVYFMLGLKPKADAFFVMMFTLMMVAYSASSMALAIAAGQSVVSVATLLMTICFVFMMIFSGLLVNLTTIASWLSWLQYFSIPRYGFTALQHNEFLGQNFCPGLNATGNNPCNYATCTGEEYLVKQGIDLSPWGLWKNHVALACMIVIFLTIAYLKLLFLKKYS
The nature of assay [9]: Vero cell cytotoxicity, cytotoxicity control for M. tuberculosis inhibitor project, purified and synthesized samples, set 3 (AID 504684). The class given is functional. To be noted: […].
Assay [10] is described as follows: AlphaScreen signal interference compounds, dose response, artefact control for ARNT-TACC3 interaction inhibitor project, biochemical, luminescence, cherry-pick (AID 651705).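 Also: AlphaScreen bead proximity signal that flags compounds interfering with the detection technology; potency reflects signal decrease which marks the compound as an assay artifact.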 The class given is functional.
In assay [11] the target is T2, RNA-binding protein pos-1 (Caenorhabditis elegans, UniProt G5EF15).
T2 sequence (G5EF15 whole entry): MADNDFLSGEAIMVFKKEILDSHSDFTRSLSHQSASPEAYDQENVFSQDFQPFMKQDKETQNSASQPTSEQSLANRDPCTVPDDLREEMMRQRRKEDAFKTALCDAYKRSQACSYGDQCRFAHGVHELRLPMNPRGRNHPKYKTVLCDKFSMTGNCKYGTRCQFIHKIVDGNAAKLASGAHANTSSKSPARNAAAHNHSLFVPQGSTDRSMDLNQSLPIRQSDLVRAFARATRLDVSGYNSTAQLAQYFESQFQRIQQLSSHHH
The experiment in a line: inhibitors of POS-1/mex-3 RNA binding, dose response, biochemical, fluorescence polarization (AID 1964).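 Also: purified POS-1 fused to maltose binding protein made in E. coli; potency of compounds blocking POS-1 binding to fluorescent RNA.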

In assay [12] the target is T3, Zinc finger protein mex-5 (Caenorhabditis elegans, UniProt Q9XUB2).
T3 sequence (Q9XUB2 whole entry): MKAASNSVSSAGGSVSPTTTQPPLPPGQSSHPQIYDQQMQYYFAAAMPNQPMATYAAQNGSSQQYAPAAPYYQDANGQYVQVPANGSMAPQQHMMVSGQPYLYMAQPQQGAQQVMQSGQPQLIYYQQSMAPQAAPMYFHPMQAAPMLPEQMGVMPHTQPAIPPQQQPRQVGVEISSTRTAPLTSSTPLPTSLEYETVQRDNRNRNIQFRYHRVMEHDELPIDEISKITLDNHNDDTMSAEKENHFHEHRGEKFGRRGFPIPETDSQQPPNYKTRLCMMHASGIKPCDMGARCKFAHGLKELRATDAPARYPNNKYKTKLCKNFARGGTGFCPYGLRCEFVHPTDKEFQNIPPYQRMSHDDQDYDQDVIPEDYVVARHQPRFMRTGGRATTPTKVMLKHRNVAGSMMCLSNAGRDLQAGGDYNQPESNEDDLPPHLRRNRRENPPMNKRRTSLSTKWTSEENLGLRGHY
Nature of the assay: MEX-5/TCR-2 RNA interaction inhibitors, dose response, biochemical, C. elegans, fluorescence polarization (AID 1960).

Assay [13] concerns the target Arf-GAP with SH3 domain, ANK repeat and PH domain-containing protein 1 (Homo sapiens, UniProt Q9ULH1). The class given is functional.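 Also: biochemical fluorescence polarization dose–response screen measuring inhibition of ASAP1; ASAP1 GAP domain stimulating GTP hydrolysis by truncated human ARF1.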
The target in assay [14] is T4, Sentrin-specific protease 8 (Homo sapiens, UniProt Q96LD8).
T4 sequence (Q96LD8 whole entry): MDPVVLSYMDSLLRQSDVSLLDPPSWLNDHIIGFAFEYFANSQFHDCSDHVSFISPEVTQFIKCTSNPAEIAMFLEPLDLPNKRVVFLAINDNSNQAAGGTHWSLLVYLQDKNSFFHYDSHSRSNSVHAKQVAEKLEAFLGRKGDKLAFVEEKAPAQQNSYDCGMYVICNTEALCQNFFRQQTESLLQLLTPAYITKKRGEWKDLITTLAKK
In kind it is functional.

Assay [15] has as its target T4, Sentrin-specific protease 8. In kind it is functional. The source holds these as a separate data set.

Sequence of Arf-GAP with SH3 domain, ANK repeat and PH domain-containing protein 1 (Q9ULH1 whole entry, the tested form may be a part): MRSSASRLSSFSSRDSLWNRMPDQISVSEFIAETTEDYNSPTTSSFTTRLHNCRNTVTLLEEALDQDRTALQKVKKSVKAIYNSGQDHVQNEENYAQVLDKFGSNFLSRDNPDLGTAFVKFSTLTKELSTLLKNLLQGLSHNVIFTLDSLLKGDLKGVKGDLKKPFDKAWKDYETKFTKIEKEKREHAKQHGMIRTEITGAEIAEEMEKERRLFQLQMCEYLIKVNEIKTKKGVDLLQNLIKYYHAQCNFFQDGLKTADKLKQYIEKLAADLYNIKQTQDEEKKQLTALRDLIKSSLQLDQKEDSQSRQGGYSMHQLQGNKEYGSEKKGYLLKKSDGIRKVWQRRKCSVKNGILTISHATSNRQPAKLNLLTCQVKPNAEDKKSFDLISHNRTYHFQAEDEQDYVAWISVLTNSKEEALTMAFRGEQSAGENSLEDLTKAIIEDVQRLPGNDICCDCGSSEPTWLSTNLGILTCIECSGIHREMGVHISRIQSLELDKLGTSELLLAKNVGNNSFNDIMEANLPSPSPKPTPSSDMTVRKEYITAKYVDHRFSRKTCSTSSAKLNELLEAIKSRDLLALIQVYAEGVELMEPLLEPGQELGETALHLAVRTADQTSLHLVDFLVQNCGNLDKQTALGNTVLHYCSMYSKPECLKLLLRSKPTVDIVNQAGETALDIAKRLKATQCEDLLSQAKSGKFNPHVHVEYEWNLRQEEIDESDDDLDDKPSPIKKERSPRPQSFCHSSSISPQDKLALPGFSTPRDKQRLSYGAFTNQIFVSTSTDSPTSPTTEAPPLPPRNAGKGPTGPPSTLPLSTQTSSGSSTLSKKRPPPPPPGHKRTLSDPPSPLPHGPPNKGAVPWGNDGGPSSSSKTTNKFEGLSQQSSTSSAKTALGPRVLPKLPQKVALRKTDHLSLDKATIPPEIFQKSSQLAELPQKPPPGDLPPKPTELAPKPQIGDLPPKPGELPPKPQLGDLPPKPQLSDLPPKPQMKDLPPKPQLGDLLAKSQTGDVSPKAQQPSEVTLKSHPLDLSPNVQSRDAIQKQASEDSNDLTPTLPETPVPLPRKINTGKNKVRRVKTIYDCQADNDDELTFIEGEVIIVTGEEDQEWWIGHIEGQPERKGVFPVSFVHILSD
Sequence of Beta-lactamase (Pseudomonas aeruginosa, UniProt Q79MP6) (Q79MP6 whole entry): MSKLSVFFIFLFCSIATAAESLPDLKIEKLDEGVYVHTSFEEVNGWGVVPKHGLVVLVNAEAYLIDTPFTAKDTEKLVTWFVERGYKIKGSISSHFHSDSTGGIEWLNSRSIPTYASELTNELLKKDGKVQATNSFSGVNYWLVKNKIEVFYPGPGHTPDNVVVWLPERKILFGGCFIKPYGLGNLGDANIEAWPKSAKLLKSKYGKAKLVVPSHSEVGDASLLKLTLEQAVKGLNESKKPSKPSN

Turning to `O=C1Nc2ccccc2/C1=C\C(=O)c1ccccc1`, the 50% cytotoxic concentration (CC50) in the assay on Vero was > 25 µM (active). Moreover, the IC50 in [1] is 5 µM (active).

Regarding `CCCCN(C)C1=CC2=CC(=C(C#N)C#N)CCC2CC1` (stereo unspecified), the IC50 at Beta-lactamase [2] is 5.07 µM (active); at Beta-lactamase [3] it was 1.47 µM (active); with HEK293 [6], > 89.2 µM (inactive). Moreover, the EC50 is > 54.7 µM (inactive) at Insulin-degrading enzyme [4], > 54.7 µM (inactive) at Insulin-degrading enzyme [5], 1.55 µM (active) with HEK293 [7] and 4.42 µM (active) in [8].

Consider `O=C(CSc1nccc(O)n1)Nc1ccc(Oc2ccccc2)cc1`, for which the CC50 in assay [9] was > 100 µM (active).

`O=C(COc1ccccc1)Nc1nnc(-c2ccco2)o1`: the AC50 in assay [10] was 95 µM (active).

For the molecule `Cc1cc(N/C=C2/C(=O)N(c3ccc4c(c3)OCO4)C(=O)c3ccccc32)ccn1`, the figures for the concentration giving a half-maximal response (EC50) in assay [11] and in assay [12] were 27.5 µM (active) and 188 µM (inconclusive), respectively. Besides, the IC50 in assay [13] is 22.1 µM (inactive).

With `CCOc1cc(C(c2c(C)[nH][nH]c2=O)c2c(C)[nH][nH]c2=O)ccc1OS(=O)(=O)c1ccccc1`, the IC50 was 20.9 µM (active) in assay [14] and 33.2 µM (active) in assay [15].
